The subject of test [1] is Rhizoctonia solani (RHIZSO). Description: microbe, parasite or virus in culture. It counts as cell-based. The conditions noted are these: Rhizoctonia solani, read-out: RHIZSO in vitro Growth Inhibition.
The subject of test [2] is Stagonospora nodorum (Leptosphaeria nodorum—LEPTNO). Kind of test: In vitro fungal growth inhibition, Stagonospora nodorum (LEPTNO). The test is classed as cell-based. The conditions noted are these: Leptosphaeria, read-out: LEPTNO in vitro Growth Inhibition.
The subject of test [3] is Phytophthora infestans—PHYTIN. Description: whole plant or invertebrate. It counts as in vivo. The conditions noted are these: Phytophthora, in Solanum lycopersicum, 24 h, read-out: PHYTIN in vivo 1 Day Protectant.
The test system of test [4] is Magnaporthe grisea (Pyricularia oryzae—PYRIOR). Description: microbe, parasite or virus in culture. The test is classed as cell-based. The conditions noted are these: Pyricularia oryzae, read-out: PYRIOR in vitro Growth Inhibition.
In another test the test system is Erysiphe graminis—ERYSGT. Kind of test: Powdery Mildew of Wheat, in vivo whole plant, 24 Hour Protectant. The conditions noted are these: Erysiphe, read-out: ERYSGT in vivo 1 Day Protectant.
Test [5] concerns Leptosphaeria nodorum—LEPTNO. Description: Glume Blotch of Wheat, in vivo whole plant, 24 Hour Protectant. The conditions noted are these: for pest or weed control at 100 ppm: Leptosphaeria, read-out: LEPTNO in vivo 1 Day Protectant.
The subject of a further test is Ustilago maydis (USTIMA). Kind of test: microbe, parasite or virus in culture. It counts as cell-based. The conditions noted are these: Mycosarcoma maydis, read-out: USTIMA in vitro Growth Inhibition.
For test [6], the system named is Puccinia recondita—PUCCRT. Kind of test: Brown Rust of Wheat, in vivo whole plant, 24 Hour Protectant. The conditions noted are these: for pest or weed control at 100 ppm: Puccinia, read-out: PUCCRT in vivo 1 Day Protectant.
Test [7] deals with Mycosphaerella graminicola (Septoria tritici—SEPTTR). Kind of test: In vitro fungal growth inhibition, Mycosphaerella graminicola (SEPTTR). The test is classed as cell-based. The conditions noted are these: Zymoseptoria tritici, read-out: SEPTTR in vitro Growth Inhibition.
A further test concerns Septoria tritici—SEPTTR. Description: Leaf Blotch of Wheat, in vivo whole plant, 24 Hour Protectant. The conditions noted are these: for pest or weed control at 100 ppm: Zymoseptoria tritici, 24 h, read-out: SEPTTR in vivo 1 Day Protectant.
For test [8], the system named is Phytophthora infestans (PHYTIN). Description: microbe, parasite or virus in culture. It counts as cell-based. The conditions noted are these: Phytophthora infestans, read-out: PHYTIN in vitro Growth Inhibition.
Setting [9] is: 100 ppm spray, 24 hour protectant, wheat, control of fungal infection vs untreated plants.
[10] abbreviates: 100 ppm spray, wheat, 24 hour protectant, control of fungal infection vs untreated plants.
Setting [11] is: 100 ppm spray, wheat, 24 hour protectant, % control of fungal infection vs untreated plants.
[12] abbreviates: wheat plants sprayed at 100 ppm, inoculated after 24 hours, control of fungal infection vs untreated plants.

This is an account of results in patent US6706740B2, “Fungicidal heterocyclic aromatic amides and their compositions, methods of use and preparation” (Dow AgroSciences LLC, priority 1999, dated 2004).

Where two headings read alike, the source gives them in different places. Where only a bound is given, the exact number is not on record here.

As for `COc1ccnc(C(=O)NC2CCCC2O)c1O` (stereo not shown) [Compound 248], the inhibition at 25 ppm (in [1]; in test [2] (25 ppm in growth medium); in test [4]; in the test on Ustilago maydis (USTIMA); in test [7] (25 ppm in growth medium); in [8]) was under 80% each time. In addition, the pest or weed control at 100 ppm in [3] is under 25%; with Erysiphe graminis—ERYSGT (setting [9]) it was under 25%; in test [5] (setting [9]), 25 to 74%; in test [6] (setting [9]), under 25%; in the test with Septoria tritici—SEPTTR (setting [9]), under 25%.
Regarding `COc1ccnc(C(=O)Nc2ccc(OCc3ccc(C(F)(F)F)cc3)cc2)c1O` [Compound 448], the inhibition at 25 ppm in test [1] is under 80%; in [2] (25 ppm in growth medium), under 80%; in test [4], under 80%; with Ustilago maydis (USTIMA), over 80%; in test [7] (25 ppm in growth medium), under 80%; in test [8], under 80%. Moreover, the pest or weed control at 100 ppm in [3] is under 25%; with Erysiphe graminis—ERYSGT (setting [10]), under 25%; in [6] (setting [10]), 25 to 74%; with Septoria tritici—SEPTTR (setting [10]), 25 to 74%. For the same compound, the “LEPTNO in vivo 1 Day Protectant” value in test [5] (setting [10]) is reported as “+ +”.
As for `COc1ccnc(C(=O)Nc2ccc(Oc3cccc(C(F)(F)F)c3)cc2)c1O` [Compound 424], the inhibition at 25 ppm in [1] was under 80%; in test [2] (25 ppm in growth medium), over 80%; in [4], under 80%; in the test on Ustilago maydis (USTIMA), under 80%; in test [7] (25 ppm in growth medium), under 80%; in [8], under 80%. The pest or weed control at 100 ppm (in test [3]; in the test with Erysiphe graminis—ERYSGT (setting [10]); in [5] (setting [10]); in test [6] (setting [10]); in the test on Septoria tritici—SEPTTR (setting [10])) was 25 to 74% each time.
In the case of `COc1ccnc(C(=O)NC(COC(=O)CCc2ccccc2)C(=O)OC(C)COC(=O)C(C)C)c1O` (stereo not shown) [Compound 358], the inhibition at 25 ppm (in test [1]; in [2] (25 ppm in growth medium); in test [4]; in the test on Ustilago maydis (USTIMA); in test [7] (25 ppm in growth medium); in test [8]) was under 80% in each case. For the same compound, the pest or weed control at 100 ppm in test [3] is under 25%; in the test on Erysiphe graminis—ERYSGT (setting [10]), under 25%; in test [5] (setting [10]), 25 to 74%; in [6] (setting [10]), 25 to 74%; in the test with Septoria tritici—SEPTTR (setting [10]) it was 25 to 74%.
Take `COc1ccnc(C(=O)N[C@H]2COC(=O)[C@H](Cc3ccccc3)[C@@H](OC(=O)C(C)C)[C@H](C)OC2=O)c1OC(=O)c1cnc(Cl)c(Cl)c1` [Compound 670]: the inhibition at 25 ppm is under 80% in [1]; over 80% in [2] (25 ppm in growth medium); under 80% in [4]; under 80% in the test on Ustilago maydis (USTIMA); under 80% in test [7] (25 ppm in growth medium); over 80% in [8]. Besides, the pest or weed control at 100 ppm (in test [3]; in the test with Erysiphe graminis—ERYSGT (setting [11])) was under 25% in each case. The “LEPTNO in vivo 1 Day Protectant” value in [5] (setting [11]) was “+ +”. The “PUCCRT in vivo 1 Day Protectant” value in [6] (setting [11]) was “+ +”. Moreover, in the test with Septoria tritici—SEPTTR (setting [11]), the “SEPTTR in vivo 1 Day Protectant” value is given as “+ +”.
As for `COc1ccnc(C(=O)N[C@H]2COC(=O)[C@H](Cc3ccccc3)[C@@H](OC(=O)C(C)C)[C@H](C)OC2=O)c1OC(=O)C=C(C)C` [Compound 607], the inhibition at 25 ppm is under 80% in test [1]; over 80% in [2] (25 ppm in growth medium); under 80% in test [4]; under 80% in the test with Ustilago maydis (USTIMA); under 80% in [7] (25 ppm in growth medium); under 80% in test [8]. Besides, the pest or weed control at 100 ppm in test [3] was under 25%; in the test with Erysiphe graminis—ERYSGT (setting [11]), under 25%; in test [5] (setting [11]) it was 25 to 74%. Moreover, the “PUCCRT in vivo 1 Day Protectant” value in [6] (setting [11]) was “+ +”. Moreover, the “SEPTTR in vivo 1 Day Protectant” value in the test on Septoria tritici—SEPTTR (setting [11]) was “+ +”.
For `COc1ccnc(C(=O)NC2CC(C)(C)CC(C)(COCC(Cl)CCl)C2)c1O` (stereo not shown) [Compound 257], the inhibition at 25 ppm was under 80% in test [1]; over 80% in test [2] (25 ppm in growth medium); under 80% in test [4]; over 80% in the test on Ustilago maydis (USTIMA); over 80% in test [7] (25 ppm in growth medium); over 80% in test [8]. The pest or weed control at 100 ppm in test [3] is under 25%; in the test on Erysiphe graminis—ERYSGT (setting [9]), under 25%; in test [6] (setting [9]), 25 to 74%; in the test on Septoria tritici—SEPTTR (setting [9]) it was 25 to 74%. Moreover, the “LEPTNO in vivo 1 Day Protectant” value in test [5] (setting [9]) is “+ +”.
For `COc1ccnc(C(=O)NC(COC(=O)CC(C)O[Si](C)(C)C(C)(C)C)C(=O)OC(C)C)c1O` (stereo not shown) [Compound 354], the inhibition at 25 ppm (in test [1]; in [2]; in test [4]; with Ustilago maydis (USTIMA); in [7]; in test [8]) was under 80% in each case. Further, the pest or weed control at 100 ppm in test [3] is under 25%; in the test on Erysiphe graminis—ERYSGT (setting [10]) it was 25 to 74%; in test [5] (setting [10]), under 25%; in the test with Septoria tritici—SEPTTR (setting [10]), under 25%. For the same compound, the “PUCCRT in vivo 1 Day Protectant” value in test [6] (setting [10]) is listed as “+ +”.
On to `COc1ccnc(C(=O)NC2C(=O)c3ccc(-c4ccco4)cc3OC2C)c1O` (stereo not shown) [Compound 323], for which the inhibition at 25 ppm in test [1] is over 80%; in test [2] (25 ppm in growth medium) it was over 80%; in test [4], over 80%; with Ustilago maydis (USTIMA), under 80%; in test [7] (25 ppm in growth medium), over 80%; in [8], under 80%. Also, the values for the pest or weed control at 100 ppm (in [3]; with Erysiphe graminis—ERYSGT (setting [9]); in [6] (setting [9])) were under 25%, under 25% and 25 to 74%, respectively. In addition, the “LEPTNO in vivo 1 Day Protectant” value in test [5] (setting [9]) is recorded as “+ +”. Besides, the “SEPTTR in vivo 1 Day Protectant” value in the test on Septoria tritici—SEPTTR (setting [9]) is on record as “+ +”.
Regarding `CC(C)C(=O)O[C@H]1[C@H](C)OC(=O)[C@@H](NC(=O)c2nscc2O)COC(=O)[C@@H]1Cc1ccccc1` [Compound 550], the inhibition at 25 ppm in [1] is under 80%; in test [2] (25 ppm in the growth medium), over 80%; in [4], over 80%; in the test with Ustilago maydis (USTIMA), under 80%; in [7] (25 ppm in the growth medium), over 80%; in [8], over 80%. Also, the pest or weed control at 100 ppm in [3] is under 25%; in the test with Erysiphe graminis—ERYSGT (setting [12]) it was 25 to 74%; in [6] (setting [12]), 25 to 74%; in the test with Septoria tritici—SEPTTR (setting [12]) it was 25 to 74%. Also, the “LEPTNO in vivo 1 Day Protectant” value in test [5] (setting [12]) was “+ +”.
With `COc1ccnc(C(=O)NC2CC(C)(C)C(=O)C(C)(C)C2)c1O` [Compound 266], the inhibition at 25 ppm (in [1]; in test [2] (25 ppm in growth medium); in test [4]; with Ustilago maydis (USTIMA); in test [7] (25 ppm in growth medium); in test [8]) was under 80% in each case. The pest or weed control at 100 ppm was under 25% in test [3]; under 25% in the test with Erysiphe graminis—ERYSGT (setting [9]); 25 to 74% in test [5] (setting [9]); under 25% in test [6] (setting [9]); 25 to 74% with Septoria tritici—SEPTTR (setting [9]).

The term inhibition denotes the change of the read-out against control, counted positive when it falls.
